Assay results as given in publication PMC9421653 (Journal of Medicinal Chemistry, 2022).

Biological target: T1, human GPR84 (Homo sapiens, UniProt P04899+Q9NQS5)
T1 construct: expressed in transfected cells; host or cells: Flp-In T-REx 293 cells, doxycycline-induced; membrane preparations
Test: biochemical
Format: biochemical
Settings: [35S]GTPγS assay; negative log of the IC50 in molar; mean ± SEM

T1 sequence (Q9NQS5+P04899 fused): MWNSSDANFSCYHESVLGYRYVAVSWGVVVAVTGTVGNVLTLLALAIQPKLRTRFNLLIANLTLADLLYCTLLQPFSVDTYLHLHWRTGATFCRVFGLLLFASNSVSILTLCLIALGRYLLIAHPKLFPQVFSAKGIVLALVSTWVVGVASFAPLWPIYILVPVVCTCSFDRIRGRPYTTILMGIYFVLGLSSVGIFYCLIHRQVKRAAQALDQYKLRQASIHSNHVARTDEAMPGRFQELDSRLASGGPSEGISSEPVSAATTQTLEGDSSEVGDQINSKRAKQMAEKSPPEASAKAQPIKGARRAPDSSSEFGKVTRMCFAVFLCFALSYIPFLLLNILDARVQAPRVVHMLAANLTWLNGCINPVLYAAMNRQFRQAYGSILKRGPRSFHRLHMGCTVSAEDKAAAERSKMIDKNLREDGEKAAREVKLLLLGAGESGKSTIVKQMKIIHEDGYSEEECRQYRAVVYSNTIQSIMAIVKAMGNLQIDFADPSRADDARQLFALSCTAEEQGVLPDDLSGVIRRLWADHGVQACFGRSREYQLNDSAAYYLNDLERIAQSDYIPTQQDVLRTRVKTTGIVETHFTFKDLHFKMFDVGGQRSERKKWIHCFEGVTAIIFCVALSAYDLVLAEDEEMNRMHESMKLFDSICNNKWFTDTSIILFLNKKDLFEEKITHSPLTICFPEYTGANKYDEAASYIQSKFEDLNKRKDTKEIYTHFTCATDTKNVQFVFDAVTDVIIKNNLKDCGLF

| Compound | GTPγS (pIC50) |
| --- | --- |
| NC(=O)CNC(=O)c1ccc(-c2nnc(Cc3c[nH]c4ccccc34)nc2-c2ccccc2)cc1 [Compound 81, 4-(3-((1H-Indol-3-yl)methyl)-5-phenyl-1,2,4-triazin-6-yl)-N-(2-amino-2-oxoethyl)benzamide] | 5.80 ± 0.11 |
| Cc1ccc2c(Cc3nnc(-c4ccccc4)c(-c4ccccc4)n3)c[nH]c2c1 [Compound 16, 3-((5,6-Diphenyl-1,2,4-triazin-3-yl)methyl)-6-methyl-1H-indole] | <4.70 |
| Methyl 3-(3-((1H-Indol-3-yl)methyl)-6-phenyl-1,2,4-triazin-5-yl)benzoate [Compound 54] | 6.94 ± 0.03 |
| Cc1cc(Nc2nnc(-c3ccccc3)c(-c3ccccc3)n2)n[nH]1 [Compound 25, N-(5-Methyl-1H-pyrazol-3-yl)-5,6-diphenyl-1,2,4-triazin-3-amine] | <4.70 |
| O=C(O)c1cccc(-c2nc(Cc3c[nH]c4ccccc34)nnc2-c2ccccc2)c1 [Compound 55, 3-(3-((1H-Indol-3-yl)methyl)-6-phenyl-1,2,4-triazin-5-yl)benzoic Acid] | 4.99 ± 0.32 |
| O=C(NCCO)c1ccc(-c2nc(Cc3c[nH]c4cnccc34)nnc2-c2ccccc2)cc1 [Compound 69, 4-(3-((1H-Pyrrolo[2,3-c]pyridin-3-yl)methyl)-6-phenyl-1,2,4-triazin-5-yl)-N-(2-hydroxyethyl)benzamide] | 6.84 ±0.05 |
| CNS(=O)(=O)c1ccc(-c2nc(Cc3c[nH]c4ccccc34)nnc2-c2ccccc2)cc1 [Compound 33, 4-(3-((1H-Indol-3-yl)methyl)-6-phenyl-1,2,4-triazin-5-yl)-N-methylbenzenesulfonamide] | 6.49 ± 0.05 |
| CN1CCN(C(=O)c2ccc(-c3nnc(Cc4c[nH]c5ccccc45)nc3-c3ccccc3)cc2)CC1=O [Compound 80, 4-(4-(3-((1H-Indol-3-yl)methyl)-5-phenyl-1,2,4-triazin-6-yl)benzoyl)-1-methylpiperazin-2-one] | 6.69 ± 0.04 |
| CNC(=O)c1ccc(-c2nc(Cc3c[nH]c4cnccc34)nnc2-c2ccccc2)cc1 [Compound 67, 4-(3-((1H-Pyrrolo[2,3-c]pyridin-3-yl)methyl)-6-phenyl-1,2,4-triazin-5-yl)-N-methylbenzamide] | 6.48 ± 0.04 |
| CC(=O)OCc1ccc(-c2nnc(Cc3c[nH]c4ccccc34)nc2-c2ccccc2)cc1 [Compound 38, 4-(3-((1H-Indol-3-yl)methyl)-5-phenyl-1,2,4-triazin-6-yl)benzyl Acetate] | 8.06 ± 0.27 |
| FC(F)(F)Oc1ccccc1-c1cnc(Cc2c[nH]c3ccccc23)nn1 [Compound 27, 3-((6-(2-(Trifluoromethoxy)phenyl)-1,2,4-triazin-3-yl)methyl)-1H-indole] | 5.59 ± 0.13 |
| c1ccc(-c2nc(Cc3c[nH]c4cnccc34)nnc2-c2cnccn2)cc1 [Compound 60, 3-((5-Phenyl-6-(pyrazin-2-yl)-1,2,4-triazin-3-yl)methyl)-1H-pyrrolo[2,3-c]pyridine] | 5.91± 0.06 |
| CN(C)CCNC(=O)c1ccc(-c2nnc(Cc3c[nH]c4ccccc34)nc2-c2ccccc2)cc1 [Compound 75, 4-(3-((1H-Indol-3-yl)methyl)-5-phenyl-1,2,4-triazin-6-yl)-N-(2-(dimethylamino)ethyl)benzamide] | 5.54 ± 0.10 |
| c1ccc(-c2nnc(Cc3c[nH]c4ccccc34)nc2-c2ccc(CN3CCOCC3)cc2)cc1 [Compound 41, 4-(4-(3-((1H-Indol-3-yl)methyl)-6-phenyl-1,2,4-triazin-5-yl)benzyl)morpholine] | 7.51 ± 0.28 |
| c1ccc(-c2nc(Cc3c[nH]c4cnccc34)nnc2-c2ccc(CN3CCOCC3)cc2)cc1 [Compound 64, 4-(4-(3-((1H-Pyrrolo[2,3-c]pyridin-3-yl)methyl)-5-phenyl-1,2,4-triazin-6-yl)benzyl)morpholine] | 8.33 ± 0.15 |
| COc1ccc(-c2nnc(Cc3c[nH]c4ccc(F)cc34)nc2-c2ccc(OC)cc2)cc1 [Compound 12, 3-((5,6-Bis(4-methoxyphenyl)-1,2,4-triazin-3-yl)methyl)-5-fluoro-1H-indole] | 6.92 ± 0.07 |
| c1ccc(-c2nnc(Cc3c[nH]c4cnccc34)nc2-c2ccnnc2)cc1 [Compound 61, 3-((6-Phenyl-5-(pyridazin-4-yl)-1,2,4-triazin-3-yl)methyl)-1H-pyrrolo[2,3-c]pyridine] | 5.84 ± 0.10 |
| c1ccc(-c2nnc(CCc3cccnc3)nc2-c2ccccc2)cc1 [Compound 22, 5,6-Diphenyl-3-(2-(pyridin-3-yl)ethyl)-1,2,4-triazine] | 5.00 ± 0.17 |
| CC(=O)OCc1ccc(-c2nc(Cc3c[nH]c4ccccc34)nnc2-c2ccccc2)cc1 [Compound 37, 4-(3-((1H-Indol-3-yl)methyl)-6-phenyl-1,2,4-triazin-5-yl)benzyl Acetate] | 8.30 ± 0.35 |
| O=C(c1ccc(-c2nnc(Cc3c[nH]c4ccccc34)nc2-c2ccccc2)cc1)N1CCOCC1 [Compound 74, (4-(3-((1H-Indol-3-yl)methyl)-5-phenyl-1,2,4-triazin-6-yl)phenyl)(morpholino)methanone] | 7.19 ± 0.07 |
| c1ccc(-c2nc(Cc3c[nH]c4cnccc34)nnc2-c2ccnnc2)cc1 [Compound 62, 3-((5-Phenyl-6-(pyridazin-4-yl)-1,2,4-triazin-3-yl)methyl)-1H-pyrrolo[2,3-c]pyridine] | 6.21 ± 0.04 |
| COc1ccc(-c2nnc(Cc3cn(C)c4ccccc34)nc2-c2ccc(OC)cc2)cc1 [Compound 13, 3-((5,6-Bis(4-methoxyphenyl)-1,2,4-triazin-3-yl)methyl)-1-methyl-1H-indole] | <4.70 |
| COC(=O)c1ccc(-c2nnc(Cc3c[nH]c4ccccc34)nc2-c2ccc(C(=O)OC)cc2)cc1 [Compound 10, Methyl 4-[3-(1H-Indol-3-ylmethyl)-6-(4-methoxycarbonylphenyl)-1,2,4-triazin-5-yl]benzoate] | 6.67 ± 0.08 |
| CNC(=O)c1ccc(-c2nc(Cc3c[nH]c4ccncc34)nnc2-c2ccccc2)cc1 [Compound 71, 4-(3-((1H-Pyrrolo[3,2-c]pyridin-3-yl)methyl)-6-phenyl-1,2,4-triazin-5-yl)-N-methylbenzamide] | 5.64 ± 0.05 |
| Brc1ccc(-c2nnc(Cc3c[nH]c4ccccc34)nc2-c2ccc(Br)cc2)cc1 [Compound 7, 3-((5,6-Bis(4-bromophenyl)-1,2,4-triazin-3-yl)methyl)-1H-indole] | 7.60 ± 0.02 |
| O=C(O)c1ccc(-c2nnc(Cc3c[nH]c4ccccc34)nc2-c2ccccc2)cc1 [Compound 52, 4-(3-((1H-Indol-3-yl)methyl)-5-phenyl-1,2,4-triazin-6-yl)benzoic Acid] | 7.06 ± 0.22 |
| c1csc(-c2nnc(Cc3c[nH]c4ccccc34)nc2-c2cccs2)c1 [Compound 11, 3-((5,6-Di(thiophen-2-yl)-1,2,4-triazin-3-yl)methyl)-1H-indole] | 7.62 ± 0.05 |
| CS(=O)(=O)NCc1ccc(-c2nnc(Cc3c[nH]c4ccccc34)nc2-c2ccccc2)cc1 [Compound 48, N-(4-(3-((1H-Indol-3-yl)methyl)-5-phenyl-1,2,4-triazin-6-yl)benzyl)methanesulfonamide] | 7.61 ± 0.06 |
| c1ccc(-c2nnc(Cc3cnc4ccccn34)nc2-c2ccccc2)cc1 [Compound 20, 3-((5,6-Diphenyl-1,2,4-triazin-3-yl)methyl)imidazo[1,2-a]pyridine] | 5.44 ± 0.09 |
